For four compounds, IC50, EC50 and GI50 results are on record in patent US10208056B2, “Condensed tricyclic compounds as protein kinase inhibitors” (FUNDACIÓN DEL SECTOR PÚBLICO ESTATAL CENTRO NACIONAL DE …, priority 2015, dated 2019).

Read-outs that look alike come from different tables or passages of the source.

The target in experiment [1] is CDK8/Cyclin C (Homo sapiens (Human), UniProt P49336). Briefly: CDK8/Cyclin C binding assay (LanthaScreen Eu-Kinase Binding Assay). Particulars: binding assay. On the procedure:
The enzyme has been purchase from Invitrogen (PV4402) as a dimer of full-length His-tagged recombinant human proteins.
Assays were performed in 384-well plates. The final read out was generated using an EnVision plate reader (Perkin-Elmer).
(In TR-FRET formats the signal depends on donor and acceptor labels being close together.)

The target of experiment [2] is Haspin kinase (Homo sapiens (Human), UniProt Q8TF76). The experiment in a line: Haspin kinase assay (ADP-Glo). Type of experiment: biochemical. As to conditions: ATP 150 μM. The gist of the method: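 Compounds in 1:3 serial dilutions (1% DMSO final) were incubated 60 min at 30 °C with 20 nM recombinant GST-Haspin kinase domain and 150 μM ATP, without substrate, in pH 7.4 HEPES/MgCl2 buffer. ADP formed was read by luciferase luminescence and normalized to uninhibited enzyme to give % inhibition.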
Background: In ADP-Glo the light output rises with the ADP produced.

Experiment [3] deals with intracellular CDK8 (Homo sapiens (Human), UniProt P49336). The experiment in a line: Cellular CDK8 inhibition assay, western blot P-STAT1 (S727) in IFN-γ treated SW620 cells. Type of experiment: cell-based. Particulars: SW620, IFNγ treated, read-out: SW620 P-STAT1(S727) w IFNγ. Here is the method:
Compounds can be screened for their ability to inhibit intracellular CDK8 using a western blot assay to detect phosphorylation of the CDK8 substrate STAT1 (S727) in IFN-γ treated cells. SW620 cells are plated at 1*10^6 cells per well in 6-well plates (Solmeglas 13118) in RPMI media (Sigma-Aldrich R6504) supplemented with 10% foetal bovine serum (Sigma-Aldrich F7524), Penicillin/Streptomycin solution diluted 1:100 (Gibco 15070-063), and fungizone (Gibco, 15290-018), and allowed to adhere overnight at 37° C. in 5% CO2. Compounds are then added to the cell media from a final concentration of 10 μM in 10-fold serial dilutions and the cells are incubated at 37° C. in 5% CO2. After 1 hour, IFNγ (R&D systems Ref. RYD-285-IF-100) is added to a final concentration of […]. After 3 hours of treatment with IFNγ, the cells are washed in PBS, lysed adding 100 μl of protein lysis buffer (62.5 mM Tris pH 6.8 al 6.25%, 2% SDS y 10% glycerol) incubation 10 minutes at room temperature and heating at 95° C. 10 min. The protein content of the lysates is determined by DC protein assay (Biorad, Ref. 5000116). The proteins are resolved by SDS-PAGE and transferred to nitrocellulose membrane (VWR International eurolab, Ref. 732-4007). The membranes are incubated overnight at 4° C. with antibodies specific for total STAT1 (BD Transduction laboratory #610115), phosphoserine-727 STAT1 (Cell Signaling Ref. 9177) they are washed and then incubated with IRDye800 conjugated anti-mouse (Pierce/Cultek, 35521) and Alexa Fluor 680 goat anti-rabbit IgG secondary antibodies (Invitrogen, A21076). The bands are visualized and quantified using an Odyssey infrared imaging system (Li-Cor Biosciences). The percentage of phosphorylated STAT1 vs total STAT1 in cells treated with IFNγ is taken as hundred percent of phosphorylation. The percentage of STAT1 phosphorylation is finally plotted against concentration for each compound and EC50s for intracellular CDK8 inhibition are calculated using ActivityBase from IDBS.
(Immunoblotting shows a protein as a band on a membrane.)

Experiment [4] has as its system Molm13. The experiment in a line: In vitro cell proliferation assay (CellTiter-Glo), Molm13. Type of experiment: cell-based. Particulars: Homo sapiens, MOLM-13, growth inhibition, read-out: GI50 Molm13.
Experiment [5] addresses intracellular HASPIN (Homo sapiens (Human), UniProt Q8TF76). Briefly: Endogenous phosphoH3 inhibition in SW620 cells growing in 10% FBS. As to conditions: read-out: SW620 pH3(T3). Type of experiment: cell-based. On the procedure: Endogenous phosphoH3 inhibition can be screened in cells growing in 10% FBS. Cells are plated as described before and treated for 8 h with compounds as described before. Then cells are lysated and phospho H3 evaluated as described before. The percentage of phosphorylated H3 vs total H3 in cells treated with DMSO is taken as hundred percent of phosphorylation. The percentage of H3 phosphorylation is finally plotted against concentration for each compound and EC50s for intracellular HASPIN inhibition are calculated using ActivityBase from IDBS.

Sequence of intracellular CDK8 (P49336 whole entry): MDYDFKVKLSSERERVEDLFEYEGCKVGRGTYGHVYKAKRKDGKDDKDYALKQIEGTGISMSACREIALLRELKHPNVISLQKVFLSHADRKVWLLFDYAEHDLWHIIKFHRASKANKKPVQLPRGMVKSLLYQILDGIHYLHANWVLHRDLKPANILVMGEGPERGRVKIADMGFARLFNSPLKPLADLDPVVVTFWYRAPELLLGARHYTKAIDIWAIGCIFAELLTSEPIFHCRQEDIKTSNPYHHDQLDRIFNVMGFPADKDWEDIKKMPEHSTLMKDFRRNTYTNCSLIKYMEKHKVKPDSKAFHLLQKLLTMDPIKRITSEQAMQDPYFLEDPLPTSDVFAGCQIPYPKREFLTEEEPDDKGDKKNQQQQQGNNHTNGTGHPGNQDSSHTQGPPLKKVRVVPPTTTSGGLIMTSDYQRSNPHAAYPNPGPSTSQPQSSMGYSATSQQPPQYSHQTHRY
Sequence of intracellular CDK8 (P24863 whole entry partner): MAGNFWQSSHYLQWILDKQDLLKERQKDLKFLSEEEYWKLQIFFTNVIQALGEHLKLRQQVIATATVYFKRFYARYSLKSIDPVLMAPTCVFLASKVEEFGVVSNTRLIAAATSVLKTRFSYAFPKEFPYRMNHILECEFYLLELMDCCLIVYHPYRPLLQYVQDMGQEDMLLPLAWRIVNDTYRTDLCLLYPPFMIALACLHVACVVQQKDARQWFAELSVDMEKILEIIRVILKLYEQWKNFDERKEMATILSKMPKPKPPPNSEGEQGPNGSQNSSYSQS
Sequence of intracellular CDK8 (Q93074 whole entry partner): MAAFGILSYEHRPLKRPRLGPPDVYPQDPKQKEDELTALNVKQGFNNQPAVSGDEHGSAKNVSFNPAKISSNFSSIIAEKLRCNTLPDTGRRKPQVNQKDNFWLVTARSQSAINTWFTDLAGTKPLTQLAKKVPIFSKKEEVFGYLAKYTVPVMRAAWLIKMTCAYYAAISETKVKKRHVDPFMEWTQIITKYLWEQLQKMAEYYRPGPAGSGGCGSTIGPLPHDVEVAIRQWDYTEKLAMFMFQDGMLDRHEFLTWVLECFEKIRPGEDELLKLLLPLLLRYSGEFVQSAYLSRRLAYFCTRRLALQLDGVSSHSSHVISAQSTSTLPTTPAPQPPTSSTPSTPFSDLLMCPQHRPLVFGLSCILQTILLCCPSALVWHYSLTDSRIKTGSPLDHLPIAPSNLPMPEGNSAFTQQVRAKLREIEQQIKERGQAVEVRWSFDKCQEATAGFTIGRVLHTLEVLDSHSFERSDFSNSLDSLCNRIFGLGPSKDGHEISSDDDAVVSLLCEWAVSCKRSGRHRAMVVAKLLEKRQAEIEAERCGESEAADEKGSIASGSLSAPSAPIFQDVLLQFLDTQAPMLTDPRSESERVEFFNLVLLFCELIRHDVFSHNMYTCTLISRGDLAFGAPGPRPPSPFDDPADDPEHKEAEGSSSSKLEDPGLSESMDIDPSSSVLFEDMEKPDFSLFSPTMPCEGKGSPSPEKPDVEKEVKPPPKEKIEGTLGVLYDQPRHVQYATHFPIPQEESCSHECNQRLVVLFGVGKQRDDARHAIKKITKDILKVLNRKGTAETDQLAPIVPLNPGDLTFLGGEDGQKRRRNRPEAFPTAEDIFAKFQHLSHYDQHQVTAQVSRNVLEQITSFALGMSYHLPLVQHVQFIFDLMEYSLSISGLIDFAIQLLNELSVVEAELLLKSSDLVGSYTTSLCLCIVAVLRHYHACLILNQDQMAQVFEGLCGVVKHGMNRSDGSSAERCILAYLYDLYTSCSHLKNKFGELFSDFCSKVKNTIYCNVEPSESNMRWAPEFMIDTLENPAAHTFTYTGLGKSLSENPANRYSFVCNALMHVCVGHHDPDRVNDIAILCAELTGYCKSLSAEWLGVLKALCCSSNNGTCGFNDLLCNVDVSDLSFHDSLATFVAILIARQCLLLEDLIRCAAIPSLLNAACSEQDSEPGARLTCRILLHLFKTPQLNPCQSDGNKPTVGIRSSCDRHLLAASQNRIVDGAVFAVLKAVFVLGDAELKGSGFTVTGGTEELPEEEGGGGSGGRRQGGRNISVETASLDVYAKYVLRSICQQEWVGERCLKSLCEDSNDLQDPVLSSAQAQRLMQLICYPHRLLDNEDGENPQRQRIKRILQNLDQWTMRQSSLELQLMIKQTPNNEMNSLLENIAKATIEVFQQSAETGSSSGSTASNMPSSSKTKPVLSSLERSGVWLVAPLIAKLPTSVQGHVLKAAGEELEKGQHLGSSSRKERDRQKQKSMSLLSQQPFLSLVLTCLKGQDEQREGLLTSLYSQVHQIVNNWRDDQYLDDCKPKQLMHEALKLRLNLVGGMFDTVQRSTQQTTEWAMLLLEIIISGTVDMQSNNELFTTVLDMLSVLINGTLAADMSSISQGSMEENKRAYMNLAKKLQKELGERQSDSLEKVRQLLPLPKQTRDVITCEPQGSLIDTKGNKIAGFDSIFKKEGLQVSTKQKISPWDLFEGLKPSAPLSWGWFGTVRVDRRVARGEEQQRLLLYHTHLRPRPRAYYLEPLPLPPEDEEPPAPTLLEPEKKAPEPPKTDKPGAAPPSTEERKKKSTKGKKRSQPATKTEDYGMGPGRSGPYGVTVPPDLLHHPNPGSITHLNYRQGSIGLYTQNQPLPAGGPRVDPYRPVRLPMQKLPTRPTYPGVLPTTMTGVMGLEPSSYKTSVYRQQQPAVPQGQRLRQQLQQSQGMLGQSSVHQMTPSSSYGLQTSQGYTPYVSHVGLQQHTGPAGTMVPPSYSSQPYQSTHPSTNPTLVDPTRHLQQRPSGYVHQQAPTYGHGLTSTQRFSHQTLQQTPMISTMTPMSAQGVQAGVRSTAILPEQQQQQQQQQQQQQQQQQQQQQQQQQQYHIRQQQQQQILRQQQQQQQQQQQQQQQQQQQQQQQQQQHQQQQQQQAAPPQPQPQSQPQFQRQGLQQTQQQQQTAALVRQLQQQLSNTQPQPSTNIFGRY
Sequence of CDK8/Cyclin C (P49336 whole entry): as the sequence (P49336 whole entry) above
Sequence of CDK8/Cyclin C (P24863 whole entry partner): as the sequence (P24863 whole entry partner) above
Sequence of intracellular HASPIN (Q8TF76 whole entry): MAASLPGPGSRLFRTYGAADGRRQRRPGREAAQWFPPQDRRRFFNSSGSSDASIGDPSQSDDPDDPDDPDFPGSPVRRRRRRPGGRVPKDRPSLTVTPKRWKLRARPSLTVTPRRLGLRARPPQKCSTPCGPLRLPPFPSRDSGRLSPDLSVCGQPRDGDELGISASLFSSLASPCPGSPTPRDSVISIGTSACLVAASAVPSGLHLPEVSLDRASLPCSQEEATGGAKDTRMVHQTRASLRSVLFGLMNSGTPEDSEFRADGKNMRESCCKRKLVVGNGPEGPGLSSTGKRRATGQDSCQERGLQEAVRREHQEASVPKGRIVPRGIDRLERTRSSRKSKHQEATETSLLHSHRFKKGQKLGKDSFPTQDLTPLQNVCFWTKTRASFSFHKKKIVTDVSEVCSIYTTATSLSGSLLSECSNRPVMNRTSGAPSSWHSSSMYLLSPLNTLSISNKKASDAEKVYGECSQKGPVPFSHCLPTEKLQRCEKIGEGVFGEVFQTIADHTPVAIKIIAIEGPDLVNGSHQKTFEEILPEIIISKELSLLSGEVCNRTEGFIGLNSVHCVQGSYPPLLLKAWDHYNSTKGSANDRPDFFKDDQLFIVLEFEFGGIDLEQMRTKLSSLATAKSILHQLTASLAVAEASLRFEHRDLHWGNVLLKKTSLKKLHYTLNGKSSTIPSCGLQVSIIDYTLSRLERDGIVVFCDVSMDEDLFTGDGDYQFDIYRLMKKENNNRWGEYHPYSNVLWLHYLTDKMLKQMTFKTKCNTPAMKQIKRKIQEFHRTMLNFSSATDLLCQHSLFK
Sequence of Haspin kinase (Q8TF76 484-798): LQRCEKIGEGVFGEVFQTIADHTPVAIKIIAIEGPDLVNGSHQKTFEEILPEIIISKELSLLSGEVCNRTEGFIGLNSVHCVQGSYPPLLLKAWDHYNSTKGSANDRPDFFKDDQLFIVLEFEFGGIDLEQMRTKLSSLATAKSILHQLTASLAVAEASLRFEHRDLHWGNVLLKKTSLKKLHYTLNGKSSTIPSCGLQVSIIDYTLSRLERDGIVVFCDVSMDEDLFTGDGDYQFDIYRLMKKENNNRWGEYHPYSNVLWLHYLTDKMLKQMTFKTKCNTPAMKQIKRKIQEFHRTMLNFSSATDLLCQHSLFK

Broadly, the IC50 is the concentration that gives 50% inhibition. A lower IC50 goes with inhibition by little substance. By GI50 is commonly meant the concentration that inhibits growth by half. In the case of `NC(=O)c1cc2c([nH]1)-c1ccncc1O[C@H]2C1CCOCC1` (single isomer, unassigned) [Example 72], the half-inhibitory concentration (IC50) was found to be 4.46 nM in experiment [1] and 406 nM in experiment [2]. Besides, in experiment [3] (semiquantitative), the EC50 is below 500 nM. Also, in experiment [4] (semiquantitative), the GI50 was in the range of 1000 to 10000 nM.

`CCn1c(C(N)=O)cc2c1-c1ccncc1OC2(C)C` [Example 43]: the concentration for half-maximal inhibition (IC50) in experiment [1] was determined as 1.41 nM; in experiment [2], 36.8 nM. Further, the EC50 was 0.064 nM in experiment [3] (quantitative) and 1.6 nM in experiment [5] (quantitative). Besides, the 50% growth inhibitory concentration (GI50) in experiment [4] (quantitative) worked out at 349 nM.

Regarding `CC1(C)Oc2cnccc2-c2c1cc(C(N)=O)n2CCF` [Example 52], the IC50 stood at 1.41 nM in experiment [1] and 22.4 nM in experiment [2]. For the same compound, the EC50 in experiment [3] (semiquantitative) and in experiment [5] (semiquantitative) was below 500 nM in each case. In addition, in experiment [4] (semiquantitative), the 50% growth inhibitory concentration (GI50) was below 1000 nM.

With `CCn1c(C(N)=O)c(-c2ccccc2OC)c2c1-c1ccncc1OC2(C)C` [Example 68], the IC50 in experiment [1] is 3.23 nM; in experiment [2] it was 354 nM. For the same compound, the EC50 in experiment [3] (semiquantitative) and in experiment [5] (semiquantitative) was below 500 nM throughout. Besides, the GI50 in experiment [4] (semiquantitative) was below 1000 nM.
